{"source": "PubChem BioAssay AID489035", "about": "(Sanford-Burnham Center for Chemical Genomics, 2010)", "note": "Active and inactive are the calls of the source. How the calls were made is not given here."}
{"test_system": "Jurkat NF-kB reporter, TCR-induced, luciferase luminescence", "experiment": "inhibitors of TCR-driven NF-kB activation, dose response, Jurkat cells, luminescence (AID 489035)"}
{"smiles": "Cc1cc(O)c2c(c1O)C(=O)[C@]13C(=C2O)C(=O)[C@@H]2[C@@H](O)[C@H]1[C@@H]1[C@H](O)[C@H]3C(=O)C3=C(O)c4c(O)cc(C)c(O)c4C(=O)[C@]312", "IC50": "< 0.16 µM"}
{"smiles": "COc1cccc(/C=N/Nc2ccc(C(=O)O)cc2)c1O", "IC50": "0.28 µM"}
{"smiles": "CC(C)CC[n+]1ccccc1/C=C/c1ccc(N(C)C)cc1", "IC50": "> 80 µM (inactive)"}
{"smiles": "CCOC(=O)C(C)Oc1cccc2c(=O)n(CC(=O)NCc3ccccc3)ccc12", "note": "(stereo not drawn)", "IC50": "> 80 µM (inactive)"}
{"smiles": "CCOC(=O)c1[nH]c(C)c(C(=O)OCC(=O)NC(C)c2ccc(F)cc2)c1C", "note": "(stereo not drawn)", "IC50": "> 80 µM (inactive)"}
{"smiles": "COC(=O)CCC(=O)NC(=S)Nc1sc(C)c(C)c1C(N)=O", "IC50": "> 80 µM (inactive)"}
{"smiles": "CCc1ccc(/C=N/NC(=O)c2cc(C3CC3)nc3ccccc23)s1", "IC50": "20 µM (inactive)"}
{"smiles": "COc1ccc(-c2csc(NC(=O)C3CCN(c4ncnc5sc(C)c(C)c45)CC3)n2)cc1OC", "IC50": "> 80 µM (inactive)"}
{"smiles": "COc1ccc(CNC(=O)c2c(C)oc3c2C(=O)c2ccccc2C3=O)cc1", "IC50": "8.08 µM"}
{"smiles": "CCC/C(O)=C1\\C(=O)CC(C)(C)CC1=Nc1ccc(OC)cc1OC", "IC50": "> 80 µM (inactive)"}
{"smiles": "O=C(c1cn(Cc2ccccc2)nc1-c1ccccc1)N1CCN(c2ccccn2)CC1", "IC50": "> 80 µM (inactive)"}
{"smiles": "CCOC(=O)CSC1=C(C#N)C(c2ccc(C)s2)CC(=O)N1", "note": "(stereo not drawn)", "IC50": "> 80 µM (inactive)"}
{"smiles": "O=C(NCc1ccc2c(c1)OCO2)c1cc([N+](=O)[O-])ccc1N1CCOCC1", "IC50": "> 80 µM (inactive)"}
{"smiles": "Cn1ncc2c(N3CCN(c4ccc(Cl)c(Cl)c4)CC3)ncnc21", "IC50": "7.55 µM"}
{"smiles": "CC(=O)Nc1ccc(S(=O)(=O)N2c3ccc(F)cc3CCC2C)cc1", "note": "(stereo not drawn)", "IC50": "7.46 µM"}
{"smiles": "Cc1cc(C(C)(C)C)cc(C)c1C[n+]1ccc2ccccc2c1", "IC50": "58.9 µM (inactive)"}
{"smiles": "CCCCCN1C=CC(=C2C(=O)c3ccccc3C2=O)C=C1", "IC50": "0.37 µM"}
{"smiles": "COc1ccc(C(NC(=O)C(C)C)c2ccc3cccnc3c2O)cc1", "note": "(stereo not drawn)", "IC50": "5.96 µM"}
{"smiles": "CC(C)c1oc(=O)cc2c1[C@@H](O)[C@H]1OC(=O)[C@@]3(C)CC[C@@H](O)[C@@]2(C)C13", "note": "(stereo partly drawn)", "IC50": "2.54 µM"}
{"smiles": "Cc1ccc(/C=N/NC(=O)C2COc3ccccc3O2)s1", "note": "(stereo not drawn)", "IC50": "> 80 µM (inactive)"}
{"smiles": "C/C=C(\\C)C(=O)N[C@@H](c1ccccc1)[C@@H](O)C(=O)O[C@H]1C[C@@]2(O)[C@@H](OC(=O)c3ccccc3)C3[C@](C)(C(=O)[C@H](O)C(=C1C)C2(C)C)[C@@H](O)C[C@H]1OC[C@@]31OC(C)=O", "note": "(stereo partly drawn)", "IC50": "> 80 µM (inactive)"}
{"smiles": "N/C(=N\\OCc1ccc([N+](=O)[O-])cc1)c1ccccn1", "IC50": "0.67 µM"}
{"smiles": "C[C@]12CC[C@H](O)C[C@H]1CC[C@@H]1[C@@H]2CC[C@]2(C)[C@@H](C3=CC(=O)OC3)CC[C@]12O", "IC50": "3.53 µM"}
{"smiles": "O=C(N/N=C\\c1c(O)ccc2ccccc12)c1ccc(S(=O)(=O)N2CCCCC2)cc1", "IC50": "0.98 µM"}
{"smiles": "Cc1noc(C)c1COc1ccc(C(=O)NNC(=O)c2ccccc2F)cc1", "IC50": "> 80 µM (inactive)"}
{"smiles": "Cc1c(C(=O)OC2CCCC2)[nH]c2c1C(=O)CC(c1ccco1)C2", "note": "(stereo not drawn)", "IC50": "> 80 µM (inactive)"}
{"smiles": "O=C(c1ccc(Cl)cc1)c1cc([N+](=O)[O-])ccc1N1CCOCC1", "IC50": "> 80 µM (inactive)"}
{"smiles": "Clc1cccc(Cl)c1OCCOCCNCc1ccccc1", "IC50": "> 80 µM (inactive)"}
{"smiles": "COc1ccc(OC)c(C2CC(=O)c3c([nH]c(C(=O)OC(C)C)c3C)C2)c1", "note": "(stereo not drawn)", "IC50": "> 80 µM (inactive)"}
{"smiles": "CC1(C)C[C@H]2C=C(C=O)[C@]3(C=O)C[C@]3(C)[C@H]2C1", "IC50": "9.17 µM"}
{"smiles": "Cc1cc(C)c2nc(C)cc(N/N=C/c3ccc(O)cc3)c2c1", "IC50": "2.9 µM"}
{"smiles": "Cc1nn(-c2ccccc2Cl)c(Cl)c1/C=N/Nc1nc2ccccc2s1", "IC50": "< 0.16 µM"}
{"smiles": "O=C(Sc1cccc2cccnc12)c1ccccc1Br", "IC50": "3.21 µM"}
{"smiles": "O=C(N/N=C/c1c(O)ccc2ccccc12)c1ccc(Br)o1", "IC50": "60.7 µM (inactive)"}
{"smiles": "CCN1/C(=C/c2ccc3cc(C)ccc3[n+]2CC)Sc2ccc3sccc3c21", "IC50": "3.1 µM"}
{"smiles": "CCn1c2ccccc2c2cc(NC(=O)c3cc(OC)c(OC)c(OC)c3)ccc21", "IC50": "76.2 µM (inactive)"}
{"smiles": "CCCCCc1ccc(OCCCC[n+]2ccc(C)cc2)c(CCCCC)c1", "IC50": "8.23 µM"}
{"smiles": "C=C1C(=O)O[C@H]2C[C@@H](C)[C@@H]3C=CC(=O)[C@@]3(C)C[C@H]12", "IC50": "1.26 µM"}
